Test results reported in patent US8314143B2, “Synthetic flavonoids and pharmaceutical compositions and therapeutic methods of treatment of HIV infection and other pathologies” (Florida A&M University, priority 2006, dated 2012).
Where “and” joins values, the source holds several entries; their conditions need not be identical. Equal values may be shown once. Entries after “also recorded” stand apart in the source; their conditions may differ.

What was measured:
Type in all cases: cell-based
PC-3 cells = test: Cytoxicity on PC-3 cells (drug inhibition, cell count); conditions: for Drug Inhibition on PC-3 cells: Table 7; for % Inhibition Mean / Cells (×10^4) Mean / % Inhibition / Cells (×10^4): Exp. Nov. 11 to Nov. 17, 2005; for % Inhibition / Cells (×10^4): single replicates
Excerpt: The purified and identified analogs were subjected to in vitro biological testing.

MCF-7 cells = test: Cytoxicity on MCF-7 cells (drug inhibition, cell count); parameters: Drug Inhibition on MCF-7 Cells / MCF-7 Mean (drug inhibition) / Drug inhibition on MCF-7 Cells Mean: unit not given here; conditions: MCF-7 cells; for Drug Inhibition on MCF-7 Cells: Table 8 summary
Excerpt: (§1) The purified and identified analogs were subjected to in vitro biological testing. […] These three congeners were further evaluated in H9 and PC3 cells. AZT was employed as a positive control in all of these experiments.

H-9 cells = test: Cytoxicity on H-9 cells (drug inhibition, cell count); conditions: for H-9 Mean (drug inhibition): Table 4 summary; for % Inhibition Mean / Cells (×10^4) Mean / % Inhibition / Cells (×10^4): Exp. Dec. 05 to Dec. 09, 2005; for % Inhibition / Cells (×10^4): single replicates
Excerpt: as §1

[1] = 1 μg/ml, mean, Exp. Nov. 14 to Nov. 18, 2005
[2] = 1 μg/ml, single replicates, Exp. Nov. 14 to Nov. 18, 2005
[3] = 5 μg/ml, mean, Exp. Nov. 14 to Nov. 18, 2005
[4] = 5 μg/ml, single replicates, Exp. Nov. 14 to Nov. 18, 2005
[5] = 10 μg/ml, mean, Exp. Nov. 14 to Nov. 18, 2005
[6] = 10 μg/ml, single replicates, Exp. Nov. 14 to Nov. 18, 2005
[7] = 50 μg/ml, mean, Exp. Nov. 14 to Nov. 18, 2005
[8] = 50 μg/ml, single replicates, Exp. Nov. 14 to Nov. 18, 2005

SMILES: COc1ccc(C=CC(=O)c2cc(Br)cc(Br)c2O)cc1OC [CHBr 2M]
- Drug Inhibition on PC-3 cells (PC-3 cells; 1 μg/ml): 47.1
- % Inhibition Mean (PC-3 cells; 1 μg/ml): 27.64%
- Cells (×10^4) Mean (PC-3 cells; 1 μg/ml): 70.92 ×10^4
- % Inhibition (PC-3 cells; 1 μg/ml): 25.26% and 26.53% and 31.12%
- Cells (×10^4) (PC-3 cells; 1 μg/ml): 73.3 ×10^4 and 72.0 ×10^4 and 67.5 ×10^4
- Drug Inhibition on PC-3 cells (PC-3 cells; 5 μg/ml): 65.88
- % Inhibition Mean (PC-3 cells; 5 μg/ml): 27.72%
- Cells (×10^4) Mean (PC-3 cells; 5 μg/ml): 70.83 ×10^4
- Cells (×10^4) (PC-3 cells; 5 μg/ml): 75.5 ×10^4 and 68.0 ×10^4 and 69.0 ×10^4
- Drug Inhibition on PC-3 cells (PC-3 cells; 10 μg/ml): 78.04
- % Inhibition Mean (PC-3 cells; 10 μg/ml): 26.28%
- Cells (×10^4) Mean (PC-3 cells; 10 μg/ml): 72.25 ×10^4
- Drug Inhibition on PC-3 cells (PC-3 cells; 50 μg/ml): 89.50
- % Inhibition Mean (PC-3 cells; 50 μg/ml): 42.86%
- Cells (×10^4) Mean (PC-3 cells; 50 μg/ml): 56.00 ×10^4
- % Inhibition (PC-3 cells; 50 μg/ml): 41.33% and 45.92%
- Cells (×10^4) (PC-3 cells; 50 μg/ml): 57.5 ×10^4 (2×) and 53.0 ×10^4
- inhibitory activity compared to AZT (PC-3 cells; same conditions as AZT): much superior inhibitory activities; also recorded: as good or somewhat better
- response to MCF-7 cells in the different drug concentrations (MCF-7 cells): good activities
- Drug Inhibition on MCF-7 Cells (MCF-7 cells; 1 μg/ml): 15.13
- % Inhibition Mean (MCF-7 cells; [1]): 15.13%
- Cells (×10^4) Mean (MCF-7 cells; [1]): 49.08 ×10^4
- % Inhibition (MCF-7 cells; [2]): 15.71% and 10.95% and 18.73%
- Cells (×10^4) (MCF-7 cells; [2]): 48.6 ×10^4 and 51.5 ×10^4 and 47.0 ×10^4
- Drug Inhibition on MCF-7 Cells (MCF-7 cells; 5 μg/ml): 54.61
- % Inhibition Mean (MCF-7 cells; [3]): 54.61%
- Cells (×10^4) Mean (MCF-7 cells; [3]): 26.25 ×10^4
- % Inhibition (MCF-7 cells; [4]): 53.31% and 56.34% and 54.18%
- Cells (×10^4) (MCF-7 cells; [4]): 27.0 ×10^4 and 25.3 ×10^4 and 26.5 ×10^4
- Drug Inhibition on MCF-7 Cells (MCF-7 cells; 10 μg/ml): 86.31
- % Inhibition Mean (MCF-7 cells; [5]): 86.31%
- Cells (×10^4) Mean (MCF-7 cells; [5]): 7.92 ×10^4
- % Inhibition (MCF-7 cells; [6]): 87.46% and 84.44% and 87.03%
- Cells (×10^4) (MCF-7 cells; [6]): 7.3 ×10^4 and 9.0 ×10^4 and 7.5 ×10^4
- Drug Inhibition on MCF-7 Cells (MCF-7 cells; 50 μg/ml): 98.709
- % Inhibition Mean (MCF-7 cells; [7]): 98.70%
- Cells (×10^4) Mean (MCF-7 cells; [7]): 0.75 ×10^4
- % Inhibition (MCF-7 cells; [8]): 98.70% and 98.27% and 99.14%
- Cells (×10^4) (MCF-7 cells; [8]): 0.8 ×10^4 and 1.0 ×10^4 and 0.5 ×10^4
- inhibitory activity compared to AZT (MCF-7 cells; same conditions as AZT): much superior inhibitory activities; also recorded: as good or somewhat better
- H-9 Mean (drug inhibition) (H-9 cells; 1 μg/ml): 5.64
- % Inhibition Mean (H-9 cells; 1 μg/ml): 5.64%
- Cells (×10^4) Mean (H-9 cells; 1 μg/ml): 47.42 ×10^4
- % Inhibition (H-9 cells; 1 μg/ml): 9.45% and 1.49% and 5.97%
- Cells (×10^4) (H-9 cells; 1 μg/ml): 45.5 ×10^4 and 49.5 ×10^4 and 47.3 ×10^4
- H-9 Mean (drug inhibition) (H-9 cells; 5 μg/ml): 49.59
- % Inhibition Mean (H-9 cells; 5 μg/ml): 49.59%
- Cells (×10^4) Mean (H-9 cells; 5 μg/ml): 25.33 ×10^4
- % Inhibition (H-9 cells; 5 μg/ml): 49.25% and 50.76% and 48.76%
- Cells (×10^4) (H-9 cells; 5 μg/ml): 25.5 ×10^4 and 24.8 ×10^4 and 25.8 ×10^4
- H-9 Mean (drug inhibition) (H-9 cells; 10 μg/ml): 65.01
- % Inhibition Mean (H-9 cells; 10 μg/ml): 65.01%
- Cells (×10^4) Mean (H-9 cells; 10 μg/ml): 17.58 ×10^4
- % Inhibition (H-9 cells; 10 μg/ml): 63.68% and 67.66% and 63.88%
- Cells (×10^4) (H-9 cells; 10 μg/ml): 18.3 ×10^4 (2×) and 16.3 ×10^4
- H-9 Mean (drug inhibition) (H-9 cells; 50 μg/ml): 76.95
- % Inhibition Mean (H-9 cells; 50 μg/ml): 76.95%
- Cells (×10^4) Mean (H-9 cells; 50 μg/ml): 11.58 ×10^4
- % Inhibition (H-9 cells; 50 μg/ml): 76.62% and 77.11%
- Cells (×10^4) (H-9 cells; 50 μg/ml): 11.8 ×10^4 and 11.5 ×10^4 (2×)
- inhibitory activity compared to AZT (H-9 cells; same conditions as AZT): much superior inhibitory activities; also recorded: as good or somewhat better

SMILES: COc1cc(C=CC(=O)c2cc(Cl)cc(Cl)c2O)cc(OC)c1OC [CHCl 3M]
- Cells (×10^4) Mean (MCF-7 cells; drug 1 μg/ml, mean of replicates): 53.17 ×10^4
- % Inhibition Mean (MCF-7 cells; drug 1 μg/ml, mean of replicates, vs 2% DMSO): −4.42%
- Cells (×10^4) (MCF-7 cells; drug 1 μg/ml, single replicate count): 54.0 ×10^4 and 54.3 ×10^4 and 51.3 ×10^4
- % Inhibition (MCF-7 cells; drug 1 μg/ml, single replicate, vs 2% DMSO): −6.06% and −6.55% and −0.65%
- Cells (×10^4) Mean (MCF-7 cells; drug 5 μg/ml, mean of replicates): 52.75 ×10^4
- % Inhibition Mean (MCF-7 cells; drug 5 μg/ml, mean of replicates, vs 2% DMSO): −3.6%
- Cells (×10^4) (MCF-7 cells; drug 5 μg/ml, single replicate count): 53.8 ×10^4 and 51.5 ×10^4 and 50.0 ×10^4
- % Inhibition (MCF-7 cells; drug 5 μg/ml, single replicate, vs 2% DMSO): −5.56% and −1.15% and −4.09%
- Cells (×10^4) Mean (MCF-7 cells; drug 10 μg/ml, mean of replicates): 43.75 ×10^4
- % Inhibition Mean (MCF-7 cells; drug 10 μg/ml, mean of replicates, vs 2% DMSO): 14.08%
- Cells (×10^4) (MCF-7 cells; drug 10 μg/ml, single replicate count): 42.5 ×10^4 and 43.3 ×10^4 and 45.5 ×10^4
- % Inhibition (MCF-7 cells; drug 10 μg/ml, single replicate, vs 2% DMSO): 16.53% and 15.06% and 10.64%
- Cells (×10^4) Mean (MCF-7 cells; drug 50 μg/ml, mean of replicates): 31.50 ×10^4
- % Inhibition Mean (MCF-7 cells; drug 50 μg/ml, mean of replicates, vs 2% DMSO): 38.13%
- Cells (×10^4) (MCF-7 cells; drug 50 μg/ml, single replicate count): 32.0 ×10^4 and 32.8 ×10^4 and 29.8 ×10^4
- % Inhibition (MCF-7 cells; drug 50 μg/ml, single replicate, vs 2% DMSO): 37.15% and 35.68% and 41.57%
